According to patent US9522917B2, “Bruton's tyrosine kinase inhibitors for hematopoietic mobilization” (Acerta Pharma B.V., priority 2012, dated 2016):

Assays:
[1] = system: stem cell migration; settings: cited from earlier work
[2] = system: Human CD34+ hematopoietic progenitor cells; assay: In vitro Transwell migration of human CD34+ cells towards an SDF-1 gradient; type: cell-based
Method: Human CD34+ hematopoietic progenitor cells were isolated from G-CSF mobilized peripheral blood and incubated with varying concentrations (0.1 μM, 1.0 μM and 10 μM) of the pyrimidine-based BTK inhibitor 1-[(3R)-3-[4-amino-3-(4-phenoxyphenyl)pyrazolo[3,4-d]pyrimidin-1-yl]piperidin-1-yl]prop-2-en-1-one for one hour at 37° C., 5% CO2 in serum free media (0.5% bovine serum albumin in RPMI media). Cells were then transferred to the upper chamber of a Transwell migration plate (5.0 um pore size, Costar Inc.). The lower chamber contained only serum-free media with 100 ng/ml SDF-1. Cells were incubated for five hours at 37° C., 5% CO2 to allow for cell migration from the upper chamber to the lower chamber. Cells that migrated into the lower chamber were counted using a hemocytometer.

## c1cc(CN2CCCNCCNCCCNCC2)ccc1CN1CCCNCCNCCCNCC1 [plerixafor]
[1]
  concentration reported for activity in similar assays: 50 µM

## C=CC(=O)N1CCC[C@@H](n2nc(-c3ccc(Oc4ccccc4)cc3)c3c(N)ncnc32)C1 [Btk inhibitor, 1-[(3R)-3-[4-amino-3-(4-phenoxyphenyl)pyrazolo[3,4-d]pyrimidin-1-yl]piperidin-1-yl]prop-2-en-1-one]
[2]; 0.1 μM, 1.0 μM and 10 μM, one hour preincubation, five hours migration to 100 ng/ml SDF-1, FIG. 1
  inhibition of stem cell migration: inhibition of stem cell migration was seen at all tested concentrations
[2]; versus plerixafor (50 μM) in similar assays
  activity at lower concentration than reported for plerixafor: 500 fold
